Assay results: PubChem BioAssay AID1963968 (Molecular Pharmacology Branch, DTP, NCI, 2024)

System: 945468-187-T-J3-PDC spheroids with HUVEC/MSC, viability
Test: Anticancer human tumor 945468-187-T-J3-PDC patient-derived rectal carcinoma cell line growth inhibition [PI3K]
Conditions: for IC50: curve of first compound; for viability, T/C: stronger effect = lower value; active = viability on the fitted dose curve at most 10% of control; inactive = the rest
In short: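 Viability of mixed-cell spheroids was determined after exposure to pairwise combinations, one partner being inavolisib, alpelisib, duvelisib or copanlisib. Highest tested concentration matched clinical Cmax where known and 10 microM where not, descending in half-log steps.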

[1] = second compound 0.0316 µM, first compound 0.0316 µM
[2] = second compound 0.0316 µM, first compound 0.1 µM
[3] = second compound 0.0316 µM, first compound 0.316 µM
[4] = second compound 0.0316 µM, first compound 1 µM
[5] = second compound 0.0316 µM, first compound 3.16 µM
[6] = second compound 0.0316 µM, first compound 10 µM
[7] = second compound 0.1 µM, first compound 0.0316 µM
[8] = second compound 0.1 µM, first compound 0.1 µM
[9] = second compound 0.1 µM, first compound 0.316 µM
[10] = second compound 0.1 µM, first compound 1 µM
[11] = second compound 0.1 µM, first compound 3.16 µM
[12] = second compound 0.1 µM, first compound 10 µM
[13] = second compound 0.316 µM, first compound 0.0316 µM
[14] = second compound 0.316 µM, first compound 0.1 µM
[15] = second compound 0.316 µM, first compound 0.316 µM
[16] = second compound 0.316 µM, first compound 1 µM
[17] = second compound 0.316 µM, first compound 3.16 µM
[18] = second compound 0.316 µM, first compound 10 µM
[19] = second compound 1 µM, first compound 0.0316 µM
[20] = second compound 1 µM, first compound 0.1 µM
[21] = second compound 1 µM, first compound 0.316 µM
[22] = second compound 1 µM, first compound 1 µM
[23] = second compound 1 µM, first compound 3.16 µM
[24] = second compound 1 µM, first compound 10 µM
[25] = second compound 3.16 µM, first compound 0.0316 µM
[26] = second compound 3.16 µM, first compound 0.1 µM
[27] = second compound 3.16 µM, first compound 0.316 µM
[28] = second compound 3.16 µM, first compound 1 µM
[29] = second compound 3.16 µM, first compound 3.16 µM
[30] = second compound 3.16 µM, first compound 10 µM
[31] = second compound 10 µM, first compound 0.0316 µM
[32] = second compound 10 µM, first compound 0.1 µM
[33] = second compound 10 µM, first compound 0.316 µM
[34] = second compound 10 µM, first compound 1 µM
[35] = second compound 10 µM, first compound 3.16 µM
[36] = second compound 10 µM, first compound 10 µM
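Also: spheroids exposed to agents for 7 days before viability read.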
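For viability, T/C in this document: 100% = DMSO vehicle control viability.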

CCCS(=O)(=O)Nc1ccc(F)c(C(=O)c2c[nH]c3ncc(-c4ccc(Cl)cc4)cc23)c1F + Cc1nc(NC(=O)N2CCCC2C(N)=O)sc1-c1ccnc(C(C)(C)C(F)(F)F)c1
8.19 µM: IC50 (second compound 0.316 µM)
> 10 µM: IC50 (second compound 1 µM)
7.05 µM: IC50 (second compound 0.1 µM)
7.2 µM: IC50 (second compound 3.16 µM)
1.84 µM: IC50 (second compound 10 µM)
6.38 µM: IC50 (second compound 0.0316 µM)
inactive: viability, T/C [1] 99.8% | viability, T/C [2] 109% | viability, T/C [3] 87.1% | viability, T/C [4] 103% | viability, T/C [5] 107% | viability, T/C [6] 17.1% | viability, T/C [7] 111% | viability, T/C [8] 98% | viability, T/C [9] 93.3% | viability, T/C [10] 105% | viability, T/C [11] 107% | viability, T/C [12] 26.9% | viability, T/C [13] 109% | viability, T/C [14] 101% | viability, T/C [15] 100% | viability, T/C [16] 119% | viability, T/C [17] 108% | viability, T/C [18] 37.9% | viability, T/C [19] 119% | viability, T/C [20] 116% | viability, T/C [21] 112% | viability, T/C [22] 114% | viability, T/C [23] 104% | viability, T/C [24] 56.9% | viability, T/C [25] 106% | viability, T/C [26] 110% | viability, T/C [27] 101% | viability, T/C [28] 99.7% | viability, T/C [29] 96.3% | viability, T/C [30] 31.2% | viability, T/C [31] 67.1% | viability, T/C [32] 52.8% | viability, T/C [33] 53.3% | viability, T/C [34] 64.9% | viability, T/C [35] 41.5%
active: viability, T/C [36] 5.18%

C[C@@H](NC(=O)c1ncnc(N)c1Cl)c1ncc(C(=O)Nc2cc(C(F)(F)F)c(Cl)cn2)s1 + Cc1nc(NC(=O)N2CCCC2C(N)=O)sc1-c1ccnc(C(C)(C)C(F)(F)F)c1
inactive: viability, T/C [1] 107% | viability, T/C [2] 107% | viability, T/C [3] 91.6% | viability, T/C [4] 111% | viability, T/C [5] 106% | viability, T/C [6] 105% | viability, T/C [7] 101% | viability, T/C [8] 97.2% | viability, T/C [9] 94.8% | viability, T/C [10] 110% | viability, T/C [11] 111% | viability, T/C [12] 107% | viability, T/C [13] 95.8% | viability, T/C [14] 98.6% | viability, T/C [15] 95.4% | viability, T/C [16] 120% | viability, T/C [17] 112% | viability, T/C [18] 100% | viability, T/C [19] 108% | viability, T/C [20] 115% | viability, T/C [21] 102% | viability, T/C [22] 114% | viability, T/C [23] 97.6% | viability, T/C [24] 107% | viability, T/C [25] 108% | viability, T/C [26] 98% | viability, T/C [27] 101% | viability, T/C [28] 96.4% | viability, T/C [29] 99% | viability, T/C [30] 103% | viability, T/C [31] 67.1% | viability, T/C [32] 51.1% | viability, T/C [33] 44.1% | viability, T/C [34] 56% | viability, T/C [35] 61.9% | viability, T/C [36] 51.3%
> 10 µM: IC50 (second compound 0.0316 µM) | IC50 (second compound 0.1 µM) | IC50 (second compound 0.316 µM) | IC50 (second compound 1 µM) | IC50 (second compound 3.16 µM) | IC50 (second compound 10 µM)

Cn1ncnc1[C@H]1c2n[nH]c(=O)c3cc(F)cc(c23)N[C@@H]1c1ccc(F)cc1 + Cc1nc(NC(=O)N2CCCC2C(N)=O)sc1-c1ccnc(C(C)(C)C(F)(F)F)c1
inactive: viability, T/C (second compound 0.0316 µM, first compound 0.000316 µM) 96.6% | viability, T/C (second compound 0.0316 µM, first compound 0.001 µM) 102% | viability, T/C (second compound 0.0316 µM, first compound 0.00316 µM) 101% | viability, T/C (second compound 0.0316 µM, first compound 0.01 µM) 116% | viability, T/C [1] 116% | viability, T/C [2] 114% | viability, T/C (second compound 0.1 µM, first compound 0.000316 µM) 105% | viability, T/C (second compound 0.1 µM, first compound 0.001 µM) 105% | viability, T/C (second compound 0.1 µM, first compound 0.00316 µM) 91.8% | viability, T/C (second compound 0.1 µM, first compound 0.01 µM) 106% | viability, T/C [7] 120% | viability, T/C [8] 100% | viability, T/C (second compound 0.316 µM, first compound 0.000316 µM) 111% | viability, T/C (second compound 0.316 µM, first compound 0.001 µM) 103% | viability, T/C (second compound 0.316 µM, first compound 0.00316 µM) 92.6% | viability, T/C (second compound 0.316 µM, first compound 0.01 µM) 118% | viability, T/C [13] 115% | viability, T/C [14] 105% | viability, T/C (second compound 1 µM, first compound 0.000316 µM) 118% | viability, T/C (second compound 1 µM, first compound 0.001 µM) 109% | viability, T/C (second compound 1 µM, first compound 0.00316 µM) 89.9% | viability, T/C (second compound 1 µM, first compound 0.01 µM) 115% | viability, T/C [19] 99.8% | viability, T/C [20] 97.4% | viability, T/C (second compound 3.16 µM, first compound 0.000316 µM) 116% | viability, T/C (second compound 3.16 µM, first compound 0.001 µM) 103% | viability, T/C (second compound 3.16 µM, first compound 0.00316 µM) 98.7% | viability, T/C (second compound 3.16 µM, first compound 0.01 µM) 109% | viability, T/C [25] 107% | viability, T/C [26] 103% | viability, T/C (second compound 10 µM, first compound 0.000316 µM) 58.2% | viability, T/C (second compound 10 µM, first compound 0.001 µM) 68% | viability, T/C (second compound 10 µM, first compound 0.00316 µM) 61.3% | viability, T/C (second compound 10 µM, first compound 0.01 µM) 53.3% | viability, T/C [31] 63.7% | viability, T/C [32] 51.3%
> 0.1 µM: IC50 (second compound 0.0316 µM) | IC50 (second compound 0.1 µM) | IC50 (second compound 0.316 µM) | IC50 (second compound 1 µM) | IC50 (second compound 3.16 µM) | IC50 (second compound 10 µM)
